Assay results from patent US9603364B2 (Dow AgroSciences LLC, priority 2013, dated 2017).

Columns and labels:
Test in all cases: General post-emergent herbicidal activity, foliar application
Assay type in all cases: in vivo
[1] = test system: Chenopodium album L. (lambsquarters, common); details: for pest or weed control at 35 g/ha / pest or weed control at 70 g/ha / pest or weed control at 140 g/ha / pest or weed control at 280 g/ha: Chenopodium album, 336 h, foliar post-emergent, scored after 14 days, read-out: % Visual Growth Reduction CHEAL; for pest or weed control at 35 g/ha: 35 g ai/ha; for pest or weed control at 70 g/ha: 70 g ai/ha; for pest or weed control at 140 g/ha: 140 g ai/ha; for pest or weed control at 280 g/ha: 280 g ai/ha; for GR80 Value CHEAL: calculated by probit analysis, dose for 80% visual injury, may be extrapolated
In short: (§1)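 Visual injury ratings on a scale of 0 (none) to 100% (complete kill), taken 14 days after foliar post-emergence treatment of greenhouse plants and compared with untreated plants, were fitted by probit analysis to give GR20, GR50 and GR80 doses; some GR80 values are extrapolated from the slope. Sprays contained crop oil concentrate and surfactant, with rates from the highest down to 1/16×.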

[2] = test system: Euphorbia heterophylla L. (poinsettia, wild); details: for pest or weed control at 35 g/ha / pest or weed control at 70 g/ha / pest or weed control at 140 g/ha / pest or weed control at 280 g/ha: Euphorbia heterophylla, 336 h, foliar post-emergent, scored after 14 days, read-out: % Visual Growth Reduction EPHHL; for pest or weed control at 35 g/ha: 35 g ai/ha; for pest or weed control at 70 g/ha: 70 g ai/ha; for pest or weed control at 140 g/ha: 140 g ai/ha; for pest or weed control at 280 g/ha: 280 g ai/ha; for GR80 Value EPHHL: calculated by probit analysis, dose for 80% visual injury, may be extrapolated
In short: as §1

[3] = test system: Helianthus annuus L. (sunflower, common); details: for pest or weed control at 35 g/ha / pest or weed control at 70 g/ha / pest or weed control at 140 g/ha / pest or weed control at 280 g/ha: Helianthus annuus, 336 h, foliar post-emergent, scored after 14 days, read-out: % Visual Growth Reduction HELAN; for pest or weed control at 35 g/ha: 35 g ai/ha; for pest or weed control at 70 g/ha: 70 g ai/ha; for pest or weed control at 140 g/ha: 140 g ai/ha; for pest or weed control at 280 g/ha: 280 g ai/ha; for GR80 Value HELAN: calculated by probit analysis, dose for 80% visual injury, may be extrapolated
In short: as §1

[4] = test system: Amaranthus retroflexus L. (pigweed, redroot); details: for pest or weed control at 35 g/ha / pest or weed control at 70 g/ha / pest or weed control at 140 g/ha / pest or weed control at 280 g/ha: Amaranthus retroflexus, 336 h, foliar post-emergent, scored after 14 days, read-out: % Visual Growth Reduction AMARE; for pest or weed control at 35 g/ha: 35 g ai/ha; for pest or weed control at 70 g/ha: 70 g ai/ha; for pest or weed control at 140 g/ha: 140 g ai/ha; for pest or weed control at 280 g/ha: 280 g ai/ha; for GR80 Value AMARE: calculated by probit analysis, dose for 80% visual injury, may be extrapolated
In short: as §1

[5] = test system: Viola tricolor L. (pansy); details: for pest or weed control at 35 g/ha / pest or weed control at 70 g/ha / pest or weed control at 140 g/ha / pest or weed control at 280 g/ha: Viola tricolor, 336 h, foliar post-emergent, scored after 14 days, read-out: % Visual Growth Reduction VIOTR; for pest or weed control at 35 g/ha: 35 g ai/ha; for pest or weed control at 70 g/ha: 70 g ai/ha; for pest or weed control at 140 g/ha: 140 g ai/ha; for pest or weed control at 280 g/ha: 280 g ai/ha; for GR80 Value VIOTR: calculated by probit analysis, dose for 80% visual injury, may be extrapolated
In short: as §1

[6] = test system: Echinochloa crus-galli (L.) Beauv. (barnyardgrass); details: for pest or weed control at 35 g/ha / pest or weed control at 70 g/ha / pest or weed control at 140 g/ha / pest or weed control at 280 g/ha: Echinochloa crus-galli, 336 h, foliar post-emergent, scored after 14 days, read-out: % Visual Growth Reduction ECHCG; for pest or weed control at 35 g/ha: 35 g ai/ha; for pest or weed control at 70 g/ha: 70 g ai/ha; for pest or weed control at 140 g/ha: 140 g ai/ha; for pest or weed control at 280 g/ha: 280 g ai/ha; for GR80 Value ECHCG: calculated by probit analysis, dose for 80% visual injury, may be extrapolated
In short: as §1

Zea mays L. (corn) = details: 336 h, scored after 14 days, read-out: % Visual Growth Reduction ZEAMX; for plant injury at 35 g/ha: 35 g ai/ha; for plant injury at 70 g/ha: 70 g ai/ha; for plant injury at 140 g/ha: 140 g ai/ha; for plant injury at 280 g/ha: 280 g ai/ha
In short: (§2)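 Compounds in acetone/DMSO (97:3) diluted into aqueous spray with isopropanol, Atplus 411F crop oil and Triton X-155; top rate plus 1/2×–1/16× serial rates applied to foliage, solvent blank as control. Greenhouse, sub-irrigated; visual injury versus untreated plants scored 0–100% (100 = complete kill) after 14 days.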

Oryza sativa L. (rice) = details: Oryza sativa, 336 h, scored after 14 days, read-out: % Visual Growth Reduction ORYSA; for plant injury at 35 g/ha: 35 g ai/ha; for plant injury at 70 g/ha: 70 g ai/ha; for plant injury at 140 g/ha: 140 g ai/ha; for plant injury at 280 g/ha: 280 g ai/ha
In short: as §2

SMILES | pest or weed control at 70 g/ha [1] [%] | pest or weed control at 140 g/ha [1] [%] | pest or weed control at 280 g/ha [1] [%] | GR80 Value CHEAL [1] [g ai/ha] | pest or weed control at 70 g/ha [2] [%] | pest or weed control at 140 g/ha [2] [%] | pest or weed control at 280 g/ha [2] [%] | GR80 Value EPHHL [2] [g ai/ha] | pest or weed control at 70 g/ha [3] [%] | pest or weed control at 140 g/ha [3] [%] | pest or weed control at 280 g/ha [3] [%] | GR80 Value HELAN [3] [g ai/ha] | pest or weed control at 70 g/ha [4] [%] | pest or weed control at 140 g/ha [4] [%] | pest or weed control at 280 g/ha [4] [%] | GR80 Value AMARE [4] [g ai/ha] | pest or weed control at 70 g/ha [5] [%] | pest or weed control at 140 g/ha [5] [%] | pest or weed control at 280 g/ha [5] [%] | GR80 Value VIOTR [5] [g ai/ha] | further results
COC(=O)c1nc(CF)c(Cl)c(N)c1Cl [Compound F1, Methyl 4-amino-3,5-dichloro-6-(fluoromethyl)picolinate] | 90 | 90 | 90 | 17.5 | 100 | 100 | 100 | 26.2 | 100 | 100 | 100 | <17.5 | 60 | 80 | 90 | 142 | 0 | 10 | 10 | >280 | pest or weed control at 35 g/ha [1]: 90%; pest or weed control at 35 g/ha [2]: 100%; pest or weed control at 35 g/ha [3]: 100%; pest or weed control at 35 g/ha [4]: 55%; pest or weed control at 35 g/ha [5]: 0%; pest or weed control at 35 g/ha [6]: 0%; pest or weed control at 70 g/ha [6]: 0%; pest or weed control at 140 g/ha [6]: 0%; pest or weed control at 280 g/ha [6]: 0%; GR80 Value ECHCG [6]: >280 g ai/ha; plant injury at 35 g/ha (Zea mays L. (corn)): 0%; plant injury at 70 g/ha (Zea mays L. (corn)): 0%; plant injury at 140 g/ha (Zea mays L. (corn)): 0%; plant injury at 280 g/ha (Zea mays L. (corn)): 0%; plant injury at 35 g/ha (Oryza sativa L. (rice)): 0%; plant injury at 70 g/ha (Oryza sativa L. (rice)): 0%; plant injury at 140 g/ha (Oryza sativa L. (rice)): 0%; plant injury at 280 g/ha (Oryza sativa L. (rice)): 0%
CC(F)c1cc(N)c(Cl)c(C(=O)O)n1 (stereo not shown) [Compound F24, 4-Amino-3-chloro-6-(1-fluoroethyl)picolinic acid] | 100 | 100 | 100 | <17.5 | 80 | 90 | 95 | 122 | 65 | 75 | 80 | 199 | 100 | 100 | 100 | 12.3 | 100 | 100 | 100 | 36.7 | pest or weed control at 35 g/ha [1]: 100%; pest or weed control at 35 g/ha [2]: 5%; pest or weed control at 35 g/ha [3]: 50%; pest or weed control at 35 g/ha [4]: 90%; pest or weed control at 35 g/ha [5]: 85%; pest or weed control at 35 g/ha [6]: 0%; pest or weed control at 70 g/ha [6]: 55%; pest or weed control at 140 g/ha [6]: 80%; pest or weed control at 280 g/ha [6]: 90%; GR80 Value ECHCG [6]: 165 g ai/ha; plant injury at 35 g/ha (Zea mays L. (corn)): 0%; plant injury at 70 g/ha (Zea mays L. (corn)): 0%; plant injury at 140 g/ha (Zea mays L. (corn)): 0%; plant injury at 280 g/ha (Zea mays L. (corn)): 10%; plant injury at 35 g/ha (Oryza sativa L. (rice)): 0%; plant injury at 70 g/ha (Oryza sativa L. (rice)): 0%; plant injury at 140 g/ha (Oryza sativa L. (rice)): 0%; plant injury at 280 g/ha (Oryza sativa L. (rice)): 10%
CC(F)c1nc(C(=O)O)c(Cl)c(N)c1Cl (stereo not shown) [Compound F16, 4-Amino-3,5-dichloro-6-(1-fluoroethyl)picolinic acid] | 100 | 100 | 100 | <17.5 | 0 | 0 | 50 | 373 | 80 | 90 | 100 | 31.4 | 90 | 90 | 100 | 51.4 | 0 | 0 | 0 | >280 | pest or weed control at 70 g/ha [6]: 0%; pest or weed control at 140 g/ha [6]: 0%; pest or weed control at 280 g/ha [6]: 0%; GR80 Value ECHCG [6]: >280 g ai/ha; plant injury at 70 g/ha (Zea mays L. (corn)): 0%; plant injury at 140 g/ha (Zea mays L. (corn)): 0%; plant injury at 280 g/ha (Zea mays L. (corn)): 0%; plant injury at 70 g/ha (Oryza sativa L. (rice)): 0%; plant injury at 140 g/ha (Oryza sativa L. (rice)): 0%; plant injury at 280 g/ha (Oryza sativa L. (rice)): 0%
